Data published in PubChem BioAssay AID2060513 (Molecular Pharmacology Branch, DTP, NCI, 2025).

Tested on: 299254-011-R-J1-PDC complex spheroids viability
Assay: Anticancer human tumor 299254-011-R-J1-PDC patient-derived melanoma cell line growth inhibition [GQUAD]
Conditions: for IC50: curve of first compound; for viability, T/C: stronger effect = lower value
Summary of the method: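 Tumor cells were grown as complex spheroids with HUVEC endothelial cells and mesenchymal stem cells as stroma. G-quadruplex stabilizers were combined with targeted agents over half-log dilutions from near the clinical Cmax, or from 10 microM.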

[1] = second compound 0.0316 µM, first compound 0.0316 µM
[2] = second compound 0.0316 µM, first compound 0.1 µM
[3] = second compound 0.0316 µM, first compound 0.316 µM
[4] = second compound 0.0316 µM, first compound 1 µM
[5] = second compound 0.0316 µM, first compound 3.16 µM
[6] = second compound 0.0316 µM, first compound 10 µM
[7] = second compound 0.1 µM, first compound 0.0316 µM
[8] = second compound 0.1 µM, first compound 0.1 µM
[9] = second compound 0.1 µM, first compound 0.316 µM
[10] = second compound 0.1 µM, first compound 1 µM
[11] = second compound 0.1 µM, first compound 3.16 µM
[12] = second compound 0.1 µM, first compound 10 µM
[13] = second compound 0.316 µM, first compound 0.0316 µM
[14] = second compound 0.316 µM, first compound 0.1 µM
[15] = second compound 0.316 µM, first compound 0.316 µM
[16] = second compound 0.316 µM, first compound 1 µM
[17] = second compound 0.316 µM, first compound 3.16 µM
[18] = second compound 0.316 µM, first compound 10 µM
[19] = second compound 1 µM, first compound 0.0316 µM
[20] = second compound 1 µM, first compound 0.1 µM
[21] = second compound 1 µM, first compound 0.316 µM
[22] = second compound 1 µM, first compound 1 µM
[23] = second compound 1 µM, first compound 3.16 µM
[24] = second compound 1 µM, first compound 10 µM
[25] = second compound 3.16 µM, first compound 0.0316 µM
[26] = second compound 3.16 µM, first compound 0.1 µM
[27] = second compound 3.16 µM, first compound 0.316 µM
[28] = second compound 3.16 µM, first compound 1 µM
[29] = second compound 3.16 µM, first compound 3.16 µM
[30] = second compound 3.16 µM, first compound 10 µM
[31] = second compound 10 µM, first compound 0.0316 µM
[32] = second compound 10 µM, first compound 0.1 µM
[33] = second compound 10 µM, first compound 0.316 µM
[34] = second compound 10 µM, first compound 1 µM
[35] = second compound 10 µM, first compound 3.16 µM
[36] = second compound 10 µM, first compound 10 µM
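Further: spheroids exposed to the agents for seven days before readout.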
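Wherever viability, T/C is given: percent viability relative to DMSO vehicle control wells = 100%.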

## CC(C)(O)C1CCC(Nc2ccc3ncc(-c4cccc(C(F)(F)F)c4)n3n2)CC1 (stereo not drawn) + Cc1[nH]c2ccc(F)cc2c1-c1nc2c3cccnc3c3ncccc3c2[nH]1
Second compound 0.0316 µM
  IC50: > 10 µM
Second compound 0.1 µM
  IC50: > 10 µM
Second compound 0.316 µM
  IC50: > 10 µM
Second compound 1 µM
  IC50: > 10 µM
Second compound 3.16 µM
  IC50: > 10 µM
Second compound 10 µM
  IC50: 2.55 µM
[1]
  viability, T/C: 112%
[2]
  viability, T/C: 109%
[3]
  viability, T/C: 124%
[4]
  viability, T/C: 97.2%
[5]
  viability, T/C: 70.1%
[6]
  viability, T/C: 111%
[7]
  viability, T/C: 115%
[8]
  viability, T/C: 98.2%
[9]
  viability, T/C: 93.5%
[10]
  viability, T/C: 103%
[11]
  viability, T/C: 73.4%
[12]
  viability, T/C: 111%
[13]
  viability, T/C: 108%
[14]
  viability, T/C: 117%
[15]
  viability, T/C: 115%
[16]
  viability, T/C: 109%
[17]
  viability, T/C: 82.7%
[18]
  viability, T/C: 99.4%
[19]
  viability, T/C: 85.2%
[20]
  viability, T/C: 109%
[21]
  viability, T/C: 110%
[22]
  viability, T/C: 104%
[23]
  viability, T/C: 68.2%
[24]
  viability, T/C: 105%
[25]
  viability, T/C: 93%
[26]
  viability, T/C: 102%
[27]
  viability, T/C: 97%
[28]
  viability, T/C: 88%
[29]
  viability, T/C: 51%
[30]
  viability, T/C: 65.3%
[31]
  viability, T/C: 105%
[32]
  viability, T/C: 95.9%
[33]
  viability, T/C: 103%
[34]
  viability, T/C: 88%
[35]
  viability, T/C: 35.1%
[36]
  viability, T/C: 47.6%

## CC1COCCN1c1cc(C2(S(C)(=N)=O)CC2)nc(-c2ccnc3[nH]ccc23)n1 (stereo not drawn) + Cc1cnc(CNC(=O)c2c(=O)c3ccc(N4CCCN(C)CC4)nc3n3c2sc2ccccc23)cn1
Second compound 0.0316 µM
  IC50: 1.65 µM
Second compound 0.1 µM
  IC50: 2.48 µM
Second compound 0.316 µM
  IC50: 1.68 µM
Second compound 1 µM
  IC50: 0.524 µM
Second compound 3.16 µM
  IC50: 0.517 µM
Second compound 10 µM
  IC50: < 0.0316 µM
[1]
  viability, T/C: 93%
[2]
  viability, T/C: 89.9%
[3]
  viability, T/C: 76.7%
[4]
  viability, T/C: 61.8%
[5]
  viability, T/C: 36%
[6]
  viability, T/C: 22%
[7]
  viability, T/C: 80.8%
[8]
  viability, T/C: 95.6%
[9]
  viability, T/C: 78.9%
[10]
  viability, T/C: 79.4%
[11]
  viability, T/C: 42.2%
[12]
  viability, T/C: 18.7%
[13]
  viability, T/C: 80.6%
[14]
  viability, T/C: 97.1%
[15]
  viability, T/C: 96.7%
[16]
  viability, T/C: 69.8%
[17]
  viability, T/C: 25.7%
[18]
  viability, T/C: 15.6%
[19]
  viability, T/C: 71.9%
[20]
  viability, T/C: 83.1%
[21]
  viability, T/C: 48.7%
[22]
  viability, T/C: 44.1%
[23]
  viability, T/C: 24.4%
[24]
  viability, T/C: 17.1%
[25]
  viability, T/C: 76.3%
[26]
  viability, T/C: 72.3%
[27]
  viability, T/C: 63.7%
[28]
  viability, T/C: 31.9%
[29]
  viability, T/C: 22.8%
[30]
  viability, T/C: 19.1%
[31]
  viability, T/C: 0.39%
[32]
  viability, T/C: 19.2%
[33]
  viability, T/C: 44.1%
[34]
  viability, T/C: 26.4%
[35]
  viability, T/C: 0.34%
[36]
  viability, T/C: 0.27%

## Cc1cccc(N(C)C(=O)C2C(O)CCN2c2nc(C)cc(C(F)(F)F)c2C#N)c1 (stereo not drawn) + Cc1cnc(CNC(=O)c2c(=O)c3ccc(N4CCCN(C)CC4)nc3n3c2sc2ccccc23)cn1
Second compound 0.0316 µM
  IC50: > 10 µM
Second compound 0.1 µM
  IC50: > 10 µM
Second compound 0.316 µM
  IC50: > 10 µM
Second compound 1 µM
  IC50: > 10 µM
Second compound 3.16 µM
  IC50: > 10 µM
Second compound 10 µM
  IC50: > 10 µM
[1]
  viability, T/C: 120%
[2]
  viability, T/C: 115%
[3]
  viability, T/C: 117%
[4]
  viability, T/C: 89.3%
[5]
  viability, T/C: 87.6%
[6]
  viability, T/C: 112%
[7]
  viability, T/C: 88.9%
[8]
  viability, T/C: 112%
[9]
  viability, T/C: 95.6%
[10]
  viability, T/C: 92.9%
[11]
  viability, T/C: 120%
[12]
  viability, T/C: 100%
[13]
  viability, T/C: 94.3%
[14]
  viability, T/C: 96.5%
[15]
  viability, T/C: 93.2%
[16]
  viability, T/C: 93.8%
[17]
  viability, T/C: 107%
[18]
  viability, T/C: 114%
[19]
  viability, T/C: 91.8%
[20]
  viability, T/C: 94%
[21]
  viability, T/C: 103%
[22]
  viability, T/C: 85.9%
[23]
  viability, T/C: 92.1%
[24]
  viability, T/C: 83.5%
[25]
  viability, T/C: 71.9%
[26]
  viability, T/C: 75.2%
[27]
  viability, T/C: 95.3%
[28]
  viability, T/C: 85.8%
[29]
  viability, T/C: 86.5%
[30]
  viability, T/C: 85.5%
[31]
  viability, T/C: 82%
[32]
  viability, T/C: 71.9%
[33]
  viability, T/C: 64.8%
[34]
  viability, T/C: 84.4%
[35]
  viability, T/C: 63.5%
[36]
  viability, T/C: 52%

## Nc1ccn(C2OC(CO)C(O)C2(F)F)c(=O)n1 (stereo not drawn) + CN(C)c1ccc(Nc2c3ccc(NC(=O)CCN4CCCC4)cc3nc3cc(NC(=O)CCN4CCCC4)ccc23)cc1
Second compound 0.0316 µM
  IC50: > 10 µM
Second compound 0.1 µM
  IC50: > 10 µM
Second compound 0.316 µM
  IC50: 3.16 µM
Second compound 1 µM
  IC50: > 10 µM
Second compound 3.16 µM
  IC50: > 10 µM
Second compound 10 µM
  IC50: > 10 µM
[1]
  viability, T/C: 84%
[2]
  viability, T/C: 73.5%
[3]
  viability, T/C: 66.9%
[4]
  viability, T/C: 60.4%
[5]
  viability, T/C: 54.7%
[6]
  viability, T/C: 59.3%
[7]
  viability, T/C: 80.3%
[8]
  viability, T/C: 94.6%
[9]
  viability, T/C: 67.1%
[10]
  viability, T/C: 56.6%
[11]
  viability, T/C: 58.1%
[12]
  viability, T/C: 59.7%
[13]
  viability, T/C: 85.2%
[14]
  viability, T/C: 117%
[15]
  viability, T/C: 51.7%
[16]
  viability, T/C: 59.6%
[17]
  viability, T/C: 68.3%
[18]
  viability, T/C: 56.7%
[19]
  viability, T/C: 93.5%
[20]
  viability, T/C: 81.2%
[21]
  viability, T/C: 68.7%
[22]
  viability, T/C: 57.8%
[23]
  viability, T/C: 63%
[24]
  viability, T/C: 72.9%
[25]
  viability, T/C: 94.1%
[26]
  viability, T/C: 98.1%
[27]
  viability, T/C: 71.3%
[28]
  viability, T/C: 59.7%
[29]
  viability, T/C: 55.6%
[30]
  viability, T/C: 59%
[31]
  viability, T/C: 105%
[32]
  viability, T/C: 80.1%
[33]
  viability, T/C: 65.6%
[34]
  viability, T/C: 64.3%
[35]
  viability, T/C: 66.6%
[36]
  viability, T/C: 61.6%
